Assay results as given in patent publication US20110263693A1, “CELASTROL, GEDUNIN, AND DERIVATIVES THEREOF AS HSP90 INHIBITORS” (DANA-FARBER CANCER INSTITUTE, INC., priority 2006, published 2011).

What was measured:
[1] = system: androgen signaling signature in LNCaP cells; assay: GE-HTS androgen signaling signature assay / screen; conditions: for GE-HTS screen # replicates that score as the androgon deprived state (n = 3): KNN / GE-HTS screen # replicates that score as the androgon deprived state (n = 3): Naïve Bayes classifier (P < 0.05) / GE-HTS screen # replicates that score as the androgon deprived state (n = 3): unweighted summed score (P < 0.05) / GE-HTS screen # replicates that score as the androgon deprived state (n = 3): weighted summed score (P < 0.05): LNCaP, 1 nM R1881 plus compound ~20 μM, 24 hr, count of 3 replicates
[2] = system: gedunin signature; assay: Connectivity Map query with the gedunin signature; format: cell-based, human; parameters: key to gedunin score (connectivity score): connectivity score, based on Kolmogorov-Smirnov statistic; conditions: for gedunin score (connectivity score): enrichment of the gedunin signature (20 μM gedunin at 6 hours, LNCaP) in the compound's Connectivity Map profiles, 6 hr treatment; for gedunin rank: rank by gedunin score among 164 Connectivity Map compounds
Procedure, shortened: (§1)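 LNCaP cells received celastrol 1.25 μM or gedunin 20 μM for 6 h. Each signature was scored by Kolmogorov–Smirnov-based connectivity against 453 build01 profiles, mostly 6 h treatments of MCF7 cells.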

[3] = system: celastrol signature; assay: Connectivity Map query with the celastrol signature; format: cell-based, human; parameters: key to celastrol score (connectivity score): connectivity score, based on Kolmogorov-Smirnov statistic; conditions: for celastrol score (connectivity score): enrichment of the celastrol signature (1.25 μM celastrol at 6 h, LNCaP) in the compound's Connectivity Map profiles, 6 hr treatment; for celastrol rank: rank by celastrol score among 164 Connectivity Map compounds
Procedure, shortened: as §1

[4] = control wells, 1 nM R1881 plus 10 μM casodex, count of n = 336

Molecule | GE-HTS screen # replicates that score as the androgon deprived state (n = 3): KNN [1] | GE-HTS screen # replicates that score as the androgon deprived state (n = 3): Naïve Bayes classifier (P < 0.05) [1] | GE-HTS screen # replicates that score as the androgon deprived state (n = 3): unweighted summed score (P < 0.05) [1] | GE-HTS screen # replicates that score as the androgon deprived state (n = 3): weighted summed score (P < 0.05) [1] | gedunin score (connectivity score) [2] | celastrol score (connectivity score) [3] | also measured
CC(=O)O[C@@H]1CC2C(C)(C)[C@H](O)CC[C@]2(C)C2CC[C@@]3(C)[C@H](c4ccoc4)OC(=O)C4OC43[C@@]21C (stereo partly drawn) [3alpha-hydroxydeoxodihydrogedunin] | 3 | 3 | 3 | 3 | – | – | –
CC1(C)C(=O)C=C[C@]2(C)[C@H]3CC[C@@]4(C)[C@H](c5ccoc5)OC(=O)[C@H]5O[C@]54[C@]3(C)C=C[C@@H]12 [7-desacetoxy-6,7-dehydrogedunin] | 3 | 3 | 3 | 3 | – | – | –
CC(=O)O[C@H]1CC[C@]2(C)[C@H]3C(=O)C=C4[C@@H]5[C@@H](C)[C@H](C)CC[C@]5(C(=O)O)CC[C@@]4(C)[C@]3(C)CC[C@H]2C1(C)C [11-oxoursolic acid acetate] | 3 | 1 | 3 | 2 | – | – | –
CC(C)(C)c1cc(/C=C(\C#N)C(N)=S)cc(C(C)(C)C)c1O [AG-879, reference compound] | 3 | 2 | 2 | 2 | – | – | –
C=C/C(C)=C\CC1C(C)(O)CCC2C(C)(C)CCCC21C (stereo not shown) [abienol] | 2 | 1 | 3 | 3 | – | – | –
COc1ccc(C(C)C(=O)c2ccc(O)cc2O)cc1 (stereo not shown) [angolensin] | 3 | 3 | 3 | 3 | – | – | –
CC(O)(CS(=O)(=O)c1ccc(F)cc1)C(=O)Nc1ccc(C#N)c(C(F)(F)F)c1 (stereo not shown) [casodex, bicalutamide, reference compound] | – | – | – | – | – | – | GE-HTS screen # replicates that score as the androgon deprived state: KNN [1, 4]: 283; GE-HTS screen # replicates that score as the androgon deprived state: Naïve Bayes classifier (P < 0.05) [1, 4]: 268; GE-HTS screen # replicates that score as the androgon deprived state: unweighted summed score (P < 0.05) [1, 4]: 257; GE-HTS screen # replicates that score as the androgon deprived state: weighted summed score (P < 0.05) [1, 4]: 261
CC(=O)O[C@@H]1CC2C(C)(C)CCC[C@]2(C)C2CC[C@]3(C)C(=CC(=O)O[C@H]3c3ccoc3)[C@@]21C (stereo partly shown) [deoxodeoxydihydrogedunin] | 0 | 3 | 2 | 2 | – | – | –
CC1(C)C(=O)CC[C@]2(C)[C@H]3CC[C@]4(C)C(=CC(=O)O[C@H]4c4ccoc4)[C@]3(C)[C@H](O)C[C@@H]12 [dihydro-7-desacetyldeoxygedunin] | 3 | 2 | 2 | 1 | – | – | –
CN(C)CCOC(c1ccccc1)c1ccccc1.Cn1c(=O)c2[nH]c(Cl)nc2n(C)c1=O [dimenhydrinate, reference compound] | 3 | 3 | 0 | 0 | – | – | –
COP(=S)(OC)Oc1ccc([N+](=O)[O-])cc1 [methyl parathione] | 3 | 1 | 3 | 0 | – | – | –
CSc1ccc(/C=C2/C(C)=C(CC(=O)O)c3cc(F)ccc32)cc1 [sulindac sulfide] | – | – | – | – | 0 | 0 | –
CC1=C(CC(=O)O)c2cc(F)ccc2/C1=C\c1ccc([S+](C)[O-])cc1 (stereo not shown) [sulindac] | – | – | – | – | 0.177 | 0.207 | –
COC(=O)[C@H](O)[C@H]1C(C)(C)[C@H](OC(C)=O)[C@@H]2CC3=C4CC(=O)O[C@@H](c5ccoc5)[C@]4(C)CC[C@@H]3[C@@]1(C)C2=O [swietenolide-3-acetate] | 2 | 2 | 2 | 2 | – | – | –
C=CC[C@@H]1/C=C(\C)C[C@H](C)C[C@H](OC)[C@H]2O[C@@](O)(C(=O)C(=O)N3CCCC[C@H]3C(=O)O[C@H](/C(C)=C/[C@@H]3CC[C@@H](O)[C@H](OC)C3)[C@H](C)[C@@H](O)CC1=O)[C@H](C)C[C@@H]2OC [tacrolimus] | – | – | – | – | 0 | 0 | –
CC/C(=C(\c1ccccc1)c1ccc(OCCN(C)C)cc1)c1ccccc1 [tamoxifen] | – | – | – | – | 0.216 | 0 | –
NCCNCCNCCNCCN [tetraethylenepentamine] | – | – | – | – | −0.092 | −0.039 | –
O=C1CCC(N2C(=O)c3ccccc3C2=O)C(=O)N1 (stereo not shown) [thalidomide] | – | – | – | – | 0.121 | −0.256 | –
CSc1ccc2c(c1)N(CCC1CCCCN1C)c1ccccc1S2 (stereo not shown) [thioridazine] | – | – | – | – | 0.522 | 0.308 | –

Molecule | GE-HTS screen # replicates that score as the androgon deprived state (n = 3): KNN [1] | GE-HTS screen # replicates that score as the androgon deprived state (n = 3): Naïve Bayes classifier (P < 0.05) [1] | GE-HTS screen # replicates that score as the androgon deprived state (n = 3): unweighted summed score (P < 0.05) [1] | GE-HTS screen # replicates that score as the androgon deprived state (n = 3): weighted summed score (P < 0.05) [1] | gedunin score (connectivity score) [2] | celastrol score (connectivity score) [3] | also measured
Nc1nc2nc[nH]c2c(=S)[nH]1 [tioguanine] | – | – | – | – | −0.613 | 0 | –
CCCCNC(=O)NS(=O)(=O)c1ccc(C)cc1 [tolbutamide] | – | – | – | – | 0 | 0.497 | –
CCCc1c(OCCCCc2nnn[nH]2)ccc(C(C)=O)c1O [tomelukast] | – | – | – | – | 0 | 0.388 | –
CC1(C)O[C@@H]2[C@@H](CO[C@@]3(COS(N)(=O)=O)OC(C)(C)O[C@@H]23)O1 [topiramate] | – | – | – | – | 0 | 0 | –
CC1=C(/C=C/C(C)=C/C=C/C(C)=C/C(=O)O)C(C)(C)CCC1 [tretinoin] | – | – | – | – | −0.206 | −0.084 | –
CC(/C=C/C(=O)NO)=C\[C@@H](C)C(=O)c1ccc(N(C)C)cc1 [trichostatin A] | – | – | – | – | 0.427 | −0.02 | gedunin rank [2]: 29; celastrol rank [3]: 141
Cc1c(C)c2c(c(C)c1O)CCC(C)(COc1ccc(CC3SC(=O)NC3=O)cc1)O2 (stereo not shown) [troglitazone] | – | – | – | – | 0.167 | 0.42 | –
COc1cc(/C=C(\C#N)C(N)=O)cc(CSc2nc3ccccc3s2)c1O [tyrphostin AG-825] | – | – | – | – | 0 | 0 | gedunin rank [2]: 141; celastrol rank [3]: 137
COc1cc2ncnc(Nc3cccc(Cl)c3)c2cc1OC [tyrphostin AG-1478] | – | – | – | – | 0.529 | 0 | gedunin rank [2]: 14; celastrol rank [3]: 127
CCCC(CCC)C(=O)O [valproic acid] | – | – | – | – | 0.136 | 0.086 | –
O=C(CCCCCCC(=O)Nc1ccccc1)NO [vorinostat] | – | – | – | – | 0.554 | 0 | –
COC[C@H]1OC(=O)c2coc3c2[C@@]1(C)C1=C(C3=O)[C@@H]2CCC(=O)[C@@]2(C)C[C@H]1OC(C)=O [wortmannin] | – | – | – | – | 0.126 | −0.324 | –
COC(=O)[C@@H]1[C@H]2C[C@H]3c4[nH]c5ccccc5c4CCN3C[C@@H]2CC[C@@H]1O [yohimbine] | – | – | – | – | 0 | 0 | –
BW-B70C | – | – | – | – | 0.557 | 0.719 | gedunin rank [2]: 12; celastrol rank [3]: 10
avermectin B1 [reference compound] | 3 | 2 | 2 | 2 | – | – | –
butirosin | – | – | – | – | −0.55 | 0 | gedunin rank [2]: 162; celastrol rank [3]: 132
depudecin | – | – | – | – | 0.176 | 0.22 | –
ikarugamycin | – | – | – | – | 0 | 0.172 | gedunin rank [2]: 124; celastrol rank [3]: 59
